SMILES strings stand for the structures.

For the experiment, the target named is T1, purified human HDAC6 (Homo sapiens, UniProt Q9UBN7).
T1 construct: purchased BPS Bioscience 5006
T1 sequence (Q9UBN7 1-1215): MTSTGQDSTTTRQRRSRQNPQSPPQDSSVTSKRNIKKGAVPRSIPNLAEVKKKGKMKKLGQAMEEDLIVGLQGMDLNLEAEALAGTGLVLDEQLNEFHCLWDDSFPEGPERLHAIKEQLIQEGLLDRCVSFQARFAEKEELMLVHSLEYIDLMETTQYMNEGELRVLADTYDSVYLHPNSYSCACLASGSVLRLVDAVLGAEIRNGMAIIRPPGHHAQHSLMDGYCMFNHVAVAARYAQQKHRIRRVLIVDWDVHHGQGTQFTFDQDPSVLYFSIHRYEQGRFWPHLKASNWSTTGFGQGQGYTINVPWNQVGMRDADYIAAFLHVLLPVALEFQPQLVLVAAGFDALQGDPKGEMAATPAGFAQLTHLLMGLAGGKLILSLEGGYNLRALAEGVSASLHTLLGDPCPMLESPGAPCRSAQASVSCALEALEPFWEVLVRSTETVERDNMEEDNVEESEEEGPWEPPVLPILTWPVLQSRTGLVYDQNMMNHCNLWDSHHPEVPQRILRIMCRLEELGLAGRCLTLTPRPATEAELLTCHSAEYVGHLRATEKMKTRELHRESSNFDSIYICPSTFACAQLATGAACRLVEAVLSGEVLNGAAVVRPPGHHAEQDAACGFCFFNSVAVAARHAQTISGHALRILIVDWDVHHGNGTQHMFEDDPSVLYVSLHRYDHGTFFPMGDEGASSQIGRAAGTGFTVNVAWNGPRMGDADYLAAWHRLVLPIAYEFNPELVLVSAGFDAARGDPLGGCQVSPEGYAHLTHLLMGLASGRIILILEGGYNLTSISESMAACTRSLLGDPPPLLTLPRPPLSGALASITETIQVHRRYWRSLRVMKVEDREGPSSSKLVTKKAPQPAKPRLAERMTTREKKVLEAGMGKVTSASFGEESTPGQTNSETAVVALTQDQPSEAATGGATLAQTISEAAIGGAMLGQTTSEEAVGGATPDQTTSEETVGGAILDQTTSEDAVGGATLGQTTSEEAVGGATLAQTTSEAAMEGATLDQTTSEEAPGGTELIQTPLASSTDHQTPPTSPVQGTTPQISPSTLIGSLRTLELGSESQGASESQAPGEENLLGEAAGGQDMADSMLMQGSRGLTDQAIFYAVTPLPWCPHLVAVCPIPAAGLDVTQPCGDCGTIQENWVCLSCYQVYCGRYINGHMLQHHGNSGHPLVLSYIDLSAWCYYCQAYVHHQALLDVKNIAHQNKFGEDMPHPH
Nature of the experiment: HDAC6 Enzyme Assay. Format: biochemical. The procedure:
To measure the inhibition of HDAC6 activity, purified human HDAC6 (BPS Bioscience; Cat. No. 5006) is incubated with substrate Ac-Arg-Gly-Lys(Ac)-AMC peptide (Bachem Biosciences; Cat. No. I-1925) for 1 hour at 30° C. in the presence of test compounds or vehicle DMSO control. The reaction is stopped with the HDAC inhibitor trichostatin A (Sigma; Cat. No. T8552) and the amount of Arg-Gly-Lys-AMC generated is quantitated by digestion with trypsin (Sigma; Cat. No. T1426) and subsequent measurement of the amount of AMC released using a fluorescent plate reader (Pherastar; BMG Technologies) set at Ex 340 nm and Em 460 nm. Concentration response curves are generated by calculating the fluorescence increase in test compound-treated samples relative to DMSO-treated controls, and enzyme inhibition (IC50) values are determined from those curves.
As usually defined, the IC50 is the concentration that gives 50% inhibition. A low value points to inhibition by little substance. In turn, `O=C(NO)c1ccc2c(c1)CCN(C(=O)c1ccc(-n3cccc3)cc1)C2` [Compound 14, N-hydroxy-2-[4-(1H-pyrrol-1-yl)benzoyl]-1,2,3,4-tetrahydroisoquinoline-6-carboxamide] registered an IC50 of 50 to 100 nM.

Compound `Cc1cc(C)n(CC(=O)N2CCc3cc(C(=O)NO)ccc3C2)n1` [Compound 31, 2-[(3,5-dimethyl-1H-pyrazol-1-yl)acetyl]-N-hydroxy-1,2,3,4-tetrahydroisoquinoline-6-carboxamide] yielded an IC50 of 100 to 500 nM.

`O=C(NO)c1ccc2c(c1)CCCN(C(=O)Cc1csc3ccc(Cl)cc13)C2` [Compound 251, 2-[(5-chloro-1-benzothien-3-yl)acetyl]-N-hydroxy-2,3,4,5-tetrahydro-1H-2-benzazepine-7-carboxamide]: the half-inhibitory concentration (IC50) fell in the range of 100 to 500 nM.

`O=C(NO)c1ccc2c(c1)CCN(S(=O)(=O)c1ccc(Oc3ccncc3)cc1)C2` [Compound 55, N-hydroxy-2-{[4-(pyridin-4-yloxy)phenyl]sulfonyl}-1,2,3,4-tetrahydroisoquinoline-6-carboxamide] had an IC50 of 100 to 500 nM.

For `COc1ccccc1-c1nc(CN2CCc3cc(C(=O)NO)ccc3C2)no1` [Compound 72, N-hydroxy-2-{[5-(2-methoxyphenyl)-1,2,4-oxadiazol-3-yl]methyl}-1,2,3,4-tetrahydroisoquinoline-6-carboxamide], the half-maximal inhibitory concentration (IC50) is < 50 nM.

On to `C=CC(C)C(=O)N1CCc2cc(C(=O)NO)ccc2C1` (stereo not drawn) [Compound 19, N-hydroxy-2-(2-methylbut-3-enoyl)-1,2,3,4-tetrahydroisoquinoline-6-carboxamide], for which the IC50 fell in the range of 50 to 100 nM.

For `CC(=O)N[C@H](CC(C)C)C(=O)N1CCc2cc(C(=O)NO)ccc2C1` [Compound 17, 2-[(2R)-2-(acetylamino)-4-methylpentanoyl]-N-hydroxy-1,2,3,4-tetrahydroisoquinoline-6-carboxamide], the half-maximal inhibitory concentration (IC50) was in the range of 100 to 500 nM.

`O=C(NO)c1ccc2c(c1)CCN(S(=O)(=O)c1cccc(-c3ccc(F)cc3)c1)C2` [Compound 48, 2-[(4′-fluorobiphenyl-3-yl)sulfonyl]-N-hydroxy-1,2,3,4-tetrahydroisoquinoline-6-carboxamide] displayed a half-inhibitory concentration (IC50) of 50 to 100 nM.

In the case of `O=C(NO)c1ccc2c(c1)CCCN(C(=O)c1cc(C(F)(F)F)cc(C(F)(F)F)c1)C2` [Compound 261], the IC50 was > 500 nM.

`CC(c1ccccc1)N1CCc2cc(C(=O)NO)ccc2C1` (stereo not drawn) [Compound 110, N-hydroxy-2-(1-phenylethyl)-1,2,3,4-tetrahydroisoquinoline-6-carboxamide] yielded an IC50 of 100 to 500 nM.

For the compound `O=C(NO)c1ccc2c(c1)CCCN(C(=O)Cc1cc(C(F)(F)F)cc(C(F)(F)F)c1)C2` [Compound 236, 2-{[3,5-bis(trifluoromethyl)phenyl]acetyl}-N-hydroxy-2,3,4,5-tetrahydro-1H-2-benzazepine-7-carboxamide], the IC50 was > 500 nM.

For `O=C(NO)c1ccc2c(c1)CCCN(C(=O)C1CCCCCC1)C2` [Compound 246, 2-(cycloheptylcarbonyl)-N-hydroxy-2,3,4,5-tetrahydro-1H-2-benzazepine-7-carboxamide], the half-maximal inhibitory concentration (IC50) lay within 100 to 500 nM.

The compound `Cc1ccc(S(=O)(=O)N2CCc3cc(C(=O)NO)ccc3C2)cc1` [Compound 45, N-hydroxy-2-[(4-methylphenyl)sulfonyl]-1,2,3,4-tetrahydroisoquinoline-6-carboxamide] yielded an IC50 of 50 to 100 nM.

With `O=C(NO)c1ccc2c(c1)CCN(C(=O)c1cc3ccccc3[nH]1)C2` [Compound 8, N-hydroxy-2-(1H-indol-2-ylcarbonyl)-1,2,3,4-tetrahydroisoquinoline-6-carboxamide], the half-inhibitory concentration (IC50) was < 50 nM.

`CCCS(=O)(=O)N1CCc2cc(C(=O)NO)ccc2C1` [Compound 40, N-hydroxy-2-(propylsulfonyl)-1,2,3,4-tetrahydroisoquinoline-6-carboxamide] yielded a half-maximal inhibitory concentration (IC50) of 100 to 500 nM.

As to `CC(=O)N/C(=C\c1ccccc1)C(=O)N1CCCc2cc(C(=O)NO)ccc2C1` [Compound 254, 2-[(2Z)-2-(acetylamino)-3-phenylprop-2-enoyl]-N-hydroxy-2,3,4,5-tetrahydro-1H-2-benzazepine-7-carboxamide], the concentration for half-maximal inhibition (IC50) was 100 to 500 nM.

As to `O=C(NO)c1ccc2c(c1)CCCN(C(=O)c1cc3cc(Cl)ccc3[nH]1)C2` [Compound 240, 2-[(5-chloro-1H-indol-2-yl)carbonyl]-N-hydroxy-2,3,4,5-tetrahydro-1H-2-benzazepine-7-carboxamide], the IC50 was < 50 nM.

Consider `O=C(NO)c1ccc2c(c1)CCN(C(=O)Cc1ccc(-c3ccccc3)cc1)C2` [Compound 30, 2-(biphenyl-4-ylacetyl)-N-hydroxy-1,2,3,4-tetrahydroisoquinoline-6-carboxamide], for which the IC50 was < 50 nM.

As for `O=C(NO)c1ccc2c(c1)CCN(C(=O)NCCc1ccccc1)C2` [Compound 91, N^6-hydroxy-N^2-(2-phenylethyl)-3,4-dihydroisoquinoline-2,6(1H)-dicarboxamide], the IC50 is < 50 nM.

`O=C(NO)c1ccc2c(c1)CCN(Cc1ccc3ccccc3n1)C2` [Compound 60, N-hydroxy-2-(quinolin-2-ylmethyl)-1,2,3,4-tetrahydroisoquinoline-6-carboxamide] registered an IC50 of 50 to 100 nM.

With `O=C(NO)c1ccc2c(c1)CCN(S(=O)(=O)c1ccc3ccccc3c1)C2` [Compound 47, N-hydroxy-2-(2-naphthylsulfonyl)-1,2,3,4-tetrahydroisoquinoline-6-carboxamide], the IC50 was < 50 nM.

As to `O=C(NO)c1ccc2c(c1)CCN(C(=O)Cc1ccc(C(F)(F)F)cc1)C2` [Compound 3, N-hydroxy-2-{[4-(trifluoromethyl)phenyl]acetyl}-1,2,3,4-tetrahydroisoquinoline-6-carboxamide], the IC50 was in the range of 50 to 100 nM.

The compound `CC1(C(=O)N2CCc3cc(C(=O)NO)ccc3C2)CC1` [Compound 23, N-hydroxy-2-(1-methylcyclopropanecarbonyl)-1,2,3,4-tetrahydroisoquinoline-6-carboxamide] had an IC50 of 50 to 100 nM.

On to `O=C(NO)c1ccc2c(c1)CCN(C(=O)Nc1cccc3ccccc13)C2` [Compound 100, N^6-hydroxy-N^2-1-naphthyl-3,4-dihydroisoquinoline-2,6(1H)-dicarboxamide], for which the IC50 was < 50 nM.

In turn, `O=C(NO)c1ccc2c(c1)CCN(C(=O)C1CCCCCC1)C2` [Compound 22, 2-(cycloheptylcarbonyl)-N-hydroxy-1,2,3,4-tetrahydroisoquinoline-6-carboxamide] gave an IC50 of 50 to 100 nM.

Take `Cc1ccc(C(C)C(=O)N2CCc3cc(C(=O)NO)ccc3C2)cc1` (stereo not drawn) [Compound 10, N-hydroxy-2-[2-(4-methylphenyl)propanoyl]-1,2,3,4-tetrahydroisoquinoline-6-carboxamide]: the IC50 lay within 50 to 100 nM.

`O=C(NO)c1ccc2c(c1)CCN(C(=O)C1CCCC1)C2` [Compound 32, 2-(cyclopentylcarbonyl)-N-hydroxy-1,2,3,4-tetrahydroisoquinoline-6-carboxamide]: the IC50 is < 50 nM.

`CC(C)(C)C(=O)N1CCCc2cc(C(=O)NO)ccc2C1` [Compound 82, 2-(2,2-dimethylpropanoyl)-N-hydroxy-2,3,4,5-tetrahydro-1H-2-benzazepine-7-carboxamide] came in with an IC50 of 100 to 500 nM.

Regarding `O=C(NO)c1ccc2c(c1)CCN(Cc1ccc(-n3cccn3)cc1)C2` [Compound 68, N-hydroxy-2-[4-(1H-pyrazol-1-yl)benzyl]-1,2,3,4-tetrahydroisoquinoline-6-carboxamide], the IC50 lay within 100 to 500 nM.

In turn, `O=C(NO)c1ccc2c(c1)CCN(S(=O)(=O)c1ccc(C(F)(F)F)cc1)C2` [Compound 52, N-hydroxy-2-{[4-(trifluoromethyl)phenyl]sulfonyl}-1,2,3,4-tetrahydroisoquinoline-6-carboxamide] returned a 50% inhibitory concentration (IC50) of 50 to 100 nM.

Source of the values: patent US9096518B2, “Substituted hydroxamic acids and uses thereof” (Millennium Pharmaceuticals, Inc., priority 2009, dated 2015).
